Measurements: PubChem BioAssay AID1996
Values after ≈ are worked out from the molar mass of the structure shown.

Conditions: buffer; pH 7.4; 200.0 µM

SMILES | solubility kinetic [µg/mL]
O=C(CN1C(=O)NC2(CCCCCC2)C1=O)NCc1ccccc1 | > 49.4
COCCNc1nc(-c2ccccc2)nc2ccccc12.Cl | > 47.4
Cc1ccc2nc(C(F)C(F)(F)F)[nH]c2c1 (stereo unspecified) | > 34.8
CCCCC1(C)NC(=O)N(CC(=O)N2CCc3ccccc32)C1=O (stereo unspecified) | > 49.4
Cc1cc(/C=C(\C#N)C(=O)OCC#N)c(C)n1CC(C)C | 13.6 (≈ 47.7 µM)
O=C(O)CCN1C(=O)C2C3c4ccccc4C(c4ccccc43)[C@@H]2C1=O (stereo partly specified) | 46.8 (≈ 135 µM)
Cc1cnc(C(=O)OCC(=O)c2ccc(C)s2)cn1 | 41.1 (≈ 149 µM)
O=C(NCCCc1ccccc1)c1ccc(F)cc1 | > 38.6
CCn1cc(CCC(=O)NCc2ccccc2OC)c2ccccc21 | 30.5 (≈ 90.7 µM)
Cc1cccc(-n2c(O)c(C=NCCN3CCCCC3)c(=O)[nH]c2=O)c1 | > 53.5
O=C(Nc1cccc2ccccc12)C1CCCC1 | 12.2 (≈ 51 µM)
CN(CC(=O)Nc1cccc(F)c1)C(=O)CC1CCCC1 | > 43.9
COc1cc(Cl)cc(/C=C/c2ccc3cccc(O)c3n2)c1OC | < 0.7
NC(=O)C1CCN(CC(=O)Nc2ccccc2N2CCOCC2)CC1 | > 52
CN1c2ccccc2C(=O)/C(=C\Nc2ccc(F)cc2F)S1(=O)=O | 1 (≈ 2.85 µM)
O=C(Nc1sc2c(c1C(=O)O)CCCC2)c1ccc(F)cc1 | 41.2 (≈ 129 µM)
CC(=O)c1cccc(NC(=O)Nc2ccccc2)c1 | 10.5 (≈ 41.3 µM)
S=c1[nH]c2cc(Cl)c3cccnc3c2o1 | > 35.5
Clc1ccc(CN2CCCCCC2)cc1Cl | 9 (≈ 34.9 µM)
Cc1nc(SCc2ccccc2)c2oc3ccccc3c2n1 | < 0.3
O=C(COC(=O)CNC(=O)c1ccccc1F)NCC(F)(F)F | > 50.4

SMILES | solubility kinetic [µg/mL]
CCCN1C2CCCC1CC(NC(=O)c1cccc([N+](=O)[O-])c1)C2 (stereo unspecified) | > 49.7
O=C(O)c1ccn(COc2ccc(Br)cc2)n1 | > 44.6
Cc1ccc(C(=O)NCC(=O)NCCCc2ccccc2)s1 | 24.9 (≈ 78.7 µM)
Cc1noc(C)c1CSCC(=O)Nc1cccc(C(F)(F)F)c1 | > 51.7
Cc1ccc(NC(=O)Cc2cccs2)cc1Cl | 6.1 (≈ 23 µM)
CC12CC3(C)CC(C)(C1)CC(C(=O)NCc1cccnc1)(C2)C3 | > 46.9
O=C(COC(=O)c1ccc([N+](=O)[O-])o1)NCCCc1ccccc1 | > 49.8
CN(c1c[nH]c(=O)[nH]c1=O)C1CCCCC1 | > 33.5
O=S(=O)(Cc1ccccc1)Nc1cccc(F)c1 | 37.6 (≈ 142 µM)
CN(C)C=Nc1c(Br)cc(Br)c2nonc12 | 6 (≈ 17.2 µM)
O=C(COc1ccc(F)cc1F)N1CCCCCCC1 | > 42.5
COc1ccc(C(=O)Nc2ccc3nc(C)c(C)nc3c2)cc1 | 5.3 (≈ 17.2 µM)
O=C(NCCCN1CCOCC1)c1cc(Cl)ccc1Cl | 41 (≈ 129 µM)
Cl.Nc1nc2ccccc2n1C(=O)c1cccs1 | 2
O=C(CNC(=O)c1ccco1)Nc1ccc(Br)cc1 | 14.1 (≈ 43.6 µM)
COc1ccccc1CNC(=O)CN(C)CC(=O)Nc1ccccc1Br | > 63
CCOC(=O)c1c(CCl)nc2ccccc2c1C.Cl | 30.4
N#Cc1ccc(NC(=O)CCNC(=O)c2ccco2)cc1Cl | 5 (≈ 15.7 µM)
COc1ccc(Cl)cc1S(=O)(=O)n1c([N+](=O)[O-])cnc1C | 31.1 (≈ 93.7 µM)
COc1ccc(CCNC(=O)Cc2ccc([N+](=O)[O-])cc2)cc1OC | 51.3 (≈ 149 µM)
Cc1ccc(NC(=O)c2ccco2)nc1 | 28.9 (≈ 143 µM)

SMILES | solubility kinetic [µg/mL]
FC(F)(F)c1nc2ccccc2[nH]1 | > 27.9
CCOc1ccc(S(=O)(=O)N2CCN(c3ncccn3)CC2)cc1 | 2.7 (≈ 7.75 µM)
Cc1ccc2oc(=O)n(Cc3ccccc3)c2c1 | 2.9 (≈ 12.1 µM)
O=C(Nc1ccc2c(c1)OCO2)C1CC(=O)N(c2cccc(Cl)c2)C1 (stereo unspecified) | 0.9 (≈ 2.51 µM)
Cc1ccc(C)c(NC(=O)C2CCCN2C(=O)NC2CCCCC2)c1 (stereo unspecified) | 29 (≈ 84.4 µM)
Cc1cccn2c(=O)c(/C=C(\C#N)C(N)=O)c(Oc3ccccc3)nc12 | 7.9 (≈ 22.8 µM)
CCOC(=O)Cn1c2ccc(C)cc2c2nc(C)sc21 | 38.3 (≈ 133 µM)
CCOC(=O)C(=O)N1CCC(Cc2ccccc2)CC1 | 35.8 (≈ 130 µM)
NC(=S)NNC(=O)COc1ccccc1O | > 36.2
Cn1c(O)c(C(=Nc2ccc(F)cc2)c2ccccc2)c(=O)n(C)c1=O | 7.4 (≈ 20.9 µM)
O=C(CSc1ccccn1)Nc1cccc2ccccc12 | 29.5 (≈ 100 µM)
CC(C)(C)C(=O)NC(=O)Nc1ccccc1C(F)(F)F | 3.3 (≈ 11.4 µM)
CCNc1nc(-c2cc(C)n(Cc3ccco3)c2C)cs1 | 5.2 (≈ 17.3 µM)
CCOC(=O)[C@@H]1CCN(Cc2ccccc2)C[C@H]1c1ccccc1.Cl | 30.7
Cc1ccc(CSc2nc3ccccc3c(=O)n2C)cc1 | < 0.3
COc1ccc(OCCCC(=O)Nc2nccs2)cc1 | > 43.9
Cn1cnnc1SCC(=O)NC1CCCC1 | > 36
O=S(=O)(NCC(O)c1ccccc1)c1cc(Cl)sc1Cl (stereo unspecified) | 49.7 (≈ 141 µM)
O=C(OCc1ccccc1Cl)c1cc([N+](=O)[O-])ccc1N1CCOCC1 | 3.4 (≈ 9.02 µM)
